Laboratory results published in the supplement of paper PMC11061612.

Experiments:
Test in all cases: Bliss excess, mean over the matrix (fraction); higher = more synergy
[1] = system: ESS-1 (Other Solid Carcinomas)
Summary of the method: (§1)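 Cell lines grown in DMEM/F12 or RPMI with 10% FBS were plated in 1536-well plates and held 24 hours at 37°C, 5% CO2 before 72 hours of exposure to two-drug dose matrices, with DMSO typically at 0.2%. CellTiter-Glo 2.0 luminescence gave viability, which was converted to inhibition. Vehicle wells were set to 0 and blank wells to 1. Combination Emax is the second-highest inhibition in the matrix, and Bliss excess is the observed combination effect minus the expected EA + EB − EA·EB, where EA and EB are the single-agent effects.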

[2] = system: HH (T-Cell Non-Hodgkin's Lymphoma)
Summary of the method: as §1

[3] = system: SAS (Oral Cavity Carcinoma)
Summary of the method: as §1

[4] = system: NCI-H1568 (Lung Adenocarcinoma)
Summary of the method: as §1

MPP-89 (Mesothelioma) = system: MPP-89 (Mesothelioma)
Summary of the method: as §1

[5] = system: OVCAR-5 (Ovarian Carcinoma)
Summary of the method: as §1

[6] = system: LS-123 (Colorectal Carcinoma)
Summary of the method: as §1

[7] = system: FTC-133 (Thyroid Gland Carcinoma)
Summary of the method: as §1

[8] = system: LNZTA3WT4 (Low Grade Glioma)
Summary of the method: as §1

[9] = system: YAPC (Pancreatic Carcinoma)
Summary of the method: as §1

[10] = system: CAL-33 (Oral Cavity Carcinoma)
Summary of the method: as §1

LOXIMVI (Melanoma) = system: LOXIMVI (Melanoma)
Summary of the method: as §1

[11] = system: NUGC-4 (Gastric Carcinoma)
Summary of the method: as §1

[12] = system: LCLC-97TM1 (Non-Small Cell Lung Carcinoma)
Summary of the method: as §1

NCI-H2052 (Mesothelioma) = system: NCI-H2052 (Mesothelioma)
Summary of the method: as §1

GAMG (Glioblastoma) = system: GAMG (Glioblastoma)
Summary of the method: as §1

[13] = system: TGBC1TKB (Biliary Tract Carcinoma)
Summary of the method: as §1

[14] = system: L-428 (Hodgkin's Lymphoma)
Summary of the method: as §1

[15] = system: BFTC-909 (Kidney Carcinoma)
Summary of the method: as §1

BPH-1 (Non-Cancerous) = system: BPH-1 (Non-Cancerous)
Summary of the method: as §1

SMILES	Bliss excess [1]	Bliss excess [2]	Bliss excess [3]	Bliss excess [4]	Bliss excess (MPP-89 (Mesothelioma))	Bliss excess [5]	Bliss excess [6]	Bliss excess [7]	Bliss excess [8]	Bliss excess [9]	Bliss excess [10]	Bliss excess (LOXIMVI (Melanoma))	Bliss excess [11]	Bliss excess [12]	Bliss excess (NCI-H2052 (Mesothelioma))	Bliss excess (GAMG (Glioblastoma))	Bliss excess [13]	Bliss excess [14]	Bliss excess [15]	Bliss excess (BPH-1 (Non-Cancerous))
C[C@@H](c1ccc2nccn2c1)n1nnc2ncc(-c3cnn(C)c3)nc21 [Savolitinib] + Cc1c2c(nn1C)CSCc1cc(n(C)n1)CSc1cc(c3ccccc3c1)OCCCc1c(C(=O)O)n(C)c3c-2c(Cl)ccc13 [AZD5991] (first compound max 1 µM, 7x7, partner max 1 µM)	-0.0432	-0.0258	-0.0341	-0.05	-0.0423	-0.0536	-0.0234	-0.0511	-0.0247	-0.0425	-0.0423	-0.0096	-0.0348	-0.0311	-0.0419	-0.0209	-0.0238	-0.0296	-0.0074	-0.0457
CN(CCO)CC[C@H](CSc1ccccc1)Nc1ccc(S(=O)(=O)NC(=O)c2ccc(N3CCC([C@@H](O)c4ccccc4-c4ccc(Cl)cc4)CC3)cc2)cc1S(=O)(=O)C(F)(F)F [AZD4320] + Cc1cc2ncnn2cc1Nc1ncc2c(n1)n(C1CCOCC1)c(=O)n2C [AZD7648] (first compound max 1 µM, 7x7, partner max 10 µM)	-0.0373	-0.0459	-0.0533	-0.0325	-0.0105	-0.0452	–	-0.0097	-0.0358	-0.0465	-0.009	0.023	-0.0725	-0.0214	-0.0451	-0.0633	-0.0343	-0.0021	-0.0094	-0.0325
Cc1cc2ncnn2cc1Nc1ncc2c(n1)n(C1CCOCC1)c(=O)n2C [AZD7648] + C=CCn1c(=O)c2cnc(Nc3ccc(N4CCN(C)CC4)cc3)nc2n1-c1cccc(C(C)(C)O)n1 [AZD1775] (first compound max 10 µM, partner max 1 µM)	0.0525	-0.0461	0.0079	-0.0763	0.0215	-0.0038	-0.079	0.0069	-0.0049	0.0325	0.0238	-0.0123	-0.0417	0.0234	-0.0039	-0.005	-0.0362	0.0144	0.0097	0.0321
COc1cc2ncnc(Nc3ccc(F)c(Cl)c3)c2cc1OCCCN1CCOCC1 [Gefitinib] + CC(C)n1c(=O)n(C)c2cnc3cc(F)c(-c4ccc(OCCCN5CCCCC5)nc4)cc3c21 [AZD1390] (first compound max 10 µM, 7x7, partner max 0.3 µM)	-0.0518	-0.0263	-0.0454	-0.0412	-0.05	-0.0846	-0.0622	-0.0752	-0.0393	-0.0233	-0.0366	-0.0384	-0.0491	-0.0389	-0.0544	-0.0443	-0.0264	-0.0645	-0.0614	-0.0347
C[C@@H](c1ccc2nccn2c1)n1nnc2ncc(-c3cnn(C)c3)nc21 [Savolitinib] + CN(CC[C@H](CSC1=CC=CC=C1)NC2=C(C=C(C=C2)S(=O)(=O)NC(=O)C3=CC=C(C=C3)N4CCC(CC4)[C@H](C5=CC=CC=C5C6=CC=C(C=C6)Cl)O)S(=O)(=O)C(F)(F)F)CCO [AZD4320] (first compound max 1 µM, 7x7, partner max 1 µM)	–	–	–	-0.0571	–	–	–	-0.056	–	–	-0.0104	–	-0.0363	-0.0311	-0.0147	–	–	-0.0726	-0.0417	-0.0802
Cc1cc2ncnn2cc1Nc1ncc2c(n1)n(C1CCOCC1)c(=O)n2C [AZD7648] + C[C@@H]1COCCN1C2=NC(=NC(=C2)C3(CC3)[S@](=N)(=O)C)C4=C5C=CNC5=NC=C4 [AZD6738] (first compound max 10 µM, 7x7, partner max 10 µM)	-0.0161	0.0284	0.0211	0.0383	-0.0034	0.0263	-0.0021	-0.0369	-0.0165	0.0058	0.0013	-0.0019	-0.0673	0.0376	0.0186	0.0064	-0.002	-0.0223	-0.0204	-0.0251
N#Cc1cnc(Nc2cc(NC[C@H]3CNCCO3)c(C(F)(F)F)cn2)cn1 [SRA737] + C=CCn1c(=O)c2cnc(Nc3ccc(N4CCN(C)CC4)cc3)nc2n1-c1cccc(C(C)(C)O)n1 [AZD1775] (first compound max 10 µM, partner max 1 µM)	0.12	0.0569	0.0236	–	0.041	0.0274	-0.0025	–	-0.0108	0.0265	–	0.0086	–	–	–	0.0904	-0.0128	–	–	–
N#Cc1cnc(Nc2cc(NC[C@H]3CNCCO3)c(C(F)(F)F)cn2)cn1 [SRA737] + O=c1[nH]cc(F)c(=O)[nH]1 [5-Fluorouracil] (first compound max 10 µM, 7x7, partner max 20 µM)	-0.0297	0.0123	-0.0104	–	0.0355	-0.0535	-0.0135	–	-0.0325	0.0062	–	-0.0241	–	–	–	-0.0226	-0.0482	–	–	–
CN(CCO)CC[C@H](CSc1ccccc1)Nc1ccc(S(=O)(=O)NC(=O)c2ccc(N3CCC([C@@H](O)c4ccccc4-c4ccc(Cl)cc4)CC3)cc2)cc1S(=O)(=O)C(F)(F)F [AZD4320] + CC(=O)O[C@H]1C(=O)[C@@]2(C)[C@H]([C@H](OC(=O)c3ccccc3)[C@]3(O)C[C@H](OC(=O)[C@H](O)[C@@H](NC(=O)c4ccccc4)c4ccccc4)C(C)=C1C3(C)C)[C@]1(OC(C)=O)CO[C@@H]1C[C@@H]2O [Paclitaxel] (first compound max 1 µM, 7x7, partner max 3 µM)	0.0663	0.254	0.0322	–	0.108	0.0576	–	–	0.0016	-0.0321	–	0.0164	–	–	–	0.095	0.118	–	–	–
N#Cc1cnc(Nc2cc(NC[C@H]3CNCCO3)c(C(F)(F)F)cn2)cn1 [SRA737] + Nc1ccn([C@@H]2O[C@H](CO)[C@@H](O)C2(F)F)c(=O)n1 [Gemcitabine] (first compound max 10 µM, 7x7, partner max 0.3 µM)	0.0477	0.0878	0.105	–	0.0014	0.0627	0.0948	–	0.0301	0.0439	–	-0.0122	–	–	–	0.182	0.0401	–	–	–
CN(CCO)CC[C@H](CSc1ccccc1)Nc1ccc(S(=O)(=O)NC(=O)c2ccc(N3CCC([C@@H](O)c4ccccc4-c4ccc(Cl)cc4)CC3)cc2)cc1S(=O)(=O)C(F)(F)F [AZD4320] + C[C@@H]1COCCN1C2=NC(=NC(=C2)C3(CC3)[S@](=N)(=O)C)C4=C5C=CNC5=NC=C4 [AZD6738] (first compound max 1 µM, 7x7, partner max 10 µM)	-0.0296	-0.0454	-0.0255	-0.0135	-0.0163	-0.0282	–	0.0324	-0.0029	-0.0423	0.0019	0.0028	-0.0172	-0.0433	-0.0021	-0.0756	-0.0093	-0.0103	0.042	-0.0979
COc1nnc2ccc(N3CCC(c4ccc(OCCN5CCN(C)C(=O)[C@H]5C)cc4)CC3)nn12 [AZD5153] + CN(CC[C@H](CSC1=CC=CC=C1)NC2=C(C=C(C=C2)S(=O)(=O)NC(=O)C3=CC=C(C=C3)N4CCC(CC4)[C@H](C5=CC=CC=C5C6=CC=C(C=C6)Cl)O)S(=O)(=O)C(F)(F)F)CCO [AZD4320] (first compound max 1 µM, 7x7, partner max 1 µM)	–	–	–	-0.044	–	–	–	0.112	–	–	-0.0117	–	0.0299	-0.0034	-0.0348	–	–	-0.0432	0.0663	0.0728
CN(CCO)CC[C@H](CSc1ccccc1)Nc1ccc(S(=O)(=O)NC(=O)c2ccc(N3CCC([C@@H](O)c4ccccc4-c4ccc(Cl)cc4)CC3)cc2)cc1S(=O)(=O)C(F)(F)F [AZD4320] + CCN(CCO)CCCOc1ccc2c(Nc3cc(CC(=O)Nc4cccc(F)c4)[nH]n3)ncnc2c1 [AZD2811] (first compound max 1 µM, 7x7, partner max 1 µM)	0.21	-0.0135	-0.037	-0.0102	0.0246	-0.0458	–	0.0384	-0.0224	-0.0464	0.0228	0.0896	-0.0407	0.0642	-0.0462	0.119	-0.0478	0.0083	0.0605	-0.0079
CN(CCO)CC[C@H](CSc1ccccc1)Nc1ccc(S(=O)(=O)NC(=O)c2ccc(N3CCC([C@@H](O)c4ccccc4-c4ccc(Cl)cc4)CC3)cc2)cc1S(=O)(=O)C(F)(F)F [AZD4320] + Nc1ccn([C@@H]2O[C@H](CO)[C@@H](O)C2(F)F)c(=O)n1 [Gemcitabine] (first compound max 1 µM, 7x7, partner max 0.3 µM)	0.0278	-0.0085	0.0374	–	0.0268	-0.0486	–	–	-0.0125	0.011	–	0.021	–	–	–	0.103	-0.0139	–	–	–
Cc1cc2ncnn2cc1Nc1ncc2c(n1)n(C1CCOCC1)c(=O)n2C [AZD7648] + COc1cc([C@@H]2c3cc4c(cc3[C@@H](O[C@@H]3O[C@@H]5CO[C@@H](C)O[C@H]5[C@H](O)[C@H]3O)[C@H]3COC(=O)[C@H]23)OCO4)cc(OC)c1O [Etoposide] (first compound max 10 µM, 7x7, partner max 10 µM)	0.113	-0.0254	0.118	–	0.0858	0.0481	0.0811	–	0.102	0.0217	–	0.0988	–	–	–	0.147	0.0108	–	–	–
